Laboratory results from patent US10709119B2, “Methods of agent delivery into eggs and embryos of egg-producing aquatic animals for drug screening, agent toxicity assay and production of infertile fish” (University of Maryland Baltimore County, priority 2015, dated 2020).

Assays:
Atlantic salmon eggs = experiment: Induction of sterility in Atlantic salmon by immersion of eggs in salmonids' dnd-MO or dnd-MO-Vivo; settings: 10-month-old fish
Description: A salmonids' dnd-MO (see Example 5) or a dendrimeric octaguanidine with a triazine core also known as Vivo, which was conjugated to salmonids' dnd-MO, resulting in salmonids' dnd-MO-Vivo, was used to induce sterility in Atlantic salmon and was tested by administering the following: • I: Salmonids' dnd-MO-Vivo 10 μM for 48 hours, administration to fertilized eggs at the beginning of water activation (within 1 minute). • II: Salmonids' dnd-MO-Vivo 10 μM for 48 hours, administration to unfertilized eggs with the immersion medium of the ovarian fluid. The eggs were fertilized after 48 hours of incubation. • III: Salmonids' dnd-MO-Vivo 10 μM for 48 hours, administration to unfertilized eggs with the immersion medium that contains salt, Tris (pH 8.0), Glycine, and 5% of fish serum. The fertilization was conducted after 48 hours of incubation. • IV: Salmonids' dnd-MO 20 μM for 48 hours, administration to unfertilized eggs with the immersion medium of the ovarian fluid. The eggs were fertilized after 48 hours of incubation. • V: Salmonids' dnd-MO 20 μM for 48 hours, administration to unfertilized eggs with the immersion medium that contains salt, Tris (pH 8.0), Glycine, and 5% of fish serum. The eggs were fertilized after 48 hours of incubation. • VI: Water or immersion medium only without neither salmonids' dnd-MO-Vivo nor dnd-MO as controls.

[1] = system: rainbow trout embryos / unfertilized eggs; experiment: Induction of sterility in rainbow trout by immersion of eggs in salmonids' dnd-MO-Vivo; settings: 10 μM for 48 hours
Description: A dendrimeric octaguanidine with a triazine core also known as Vivo, was conjugated to salmonids' dnd-MO, 5′-[…]-3′ (SEQ ID NO. 3) and used in an immersion containing rainbow trout embryos in water, or unfertilized eggs in ovarian fluid or fertilization diluent. The ability of methods disclosed herein to induce sterility in rainbow trout was tested by administering the following:
I: Salmonids' dnd-MO-Vivo 10 μM for 48 hours, administration to fertilized eggs at the beginning of water activation (within 1 minute)
II: Salmonids' dnd-MO-Vivo 10 μM for 48 hours, administration to unfertilized eggs with the immersion medium of the ovarian fluid. The fertilization was conducted after 48 hours of incubation.
III: Salmonids' dnd-MO-Vivo 10 μM for 48 hours, administration to unfertilized eggs with the fertilization diluent that contains salt, Tris (pH 8.0), Glycine, and 5% of fish serum. The fertilization was conducted after 48 hours of incubation.
IV: Water or immersion medium only without salmonids' dnd-MO-Vivo as controls.

[2] = system: chorion of zebrafish eggs; experiment: Uptake of fluorescein-dextran by zebrafish eggs incubated with guanidine-containing compounds (chorion permeability); type: in vivo; settings: 40 mM compound, 1 μM of 10, 20 or 40 KD fluorescein-dextran, 24 hours, versus untreated eggs
Description: Zebrafish eggs were incubated in solutions that contained 1 μM of 10, 20 or 40 KD fluorescein-dextran with either 0 or 40 mM of arginine, guanidine-HCl or guanidine-thiocyanate for 24 hours.
40 zebrafish eggs were transferred into each well of 48-well plates that contained 300 μl of fresh tank system water. After the allocation of eggs, system water in each well was replaced with 300 μl of water that contained 0 or 40 μM of poly-arginine (9-arginine polymer) and 1 μM of 10 KD fluorescein-dextran. After 4 hours of incubation the eggs were examined using a MZ12 stereomicroscope (Leica, Buffalo Grove, USA), or an Axioplan 2 fluorescence microscope (ZEISS, Thornwood, N.Y., USA). Both microscopes were equipped with a DP70 digital camera (Olympus, Center Valley, Pa., USA).

With “salmonids' dnd-MO-Vivo: Vivo (dendrimeric octaguanidine with a triazine core) conjugated to salmonids' dnd-MO, 5′-CTGACTTGAACGCTCCTCCATTATC-3′ (SEQ ID NO. 3) (all phosphorodiamidate morpholino (PMO); Vivo octaguanidine dendrimer conjugated, attachment position not given here)” the “gonadal development in Atlantic salmon” value (Atlantic salmon eggs; dnd-MO-Vivo 10 μM for 48 hours) was “blocked gonadal development”, the gonad morphology (Atlantic salmon eggs; dnd-MO-Vivo 10 μM for 48 hours, treatments I, II, III) was “developed into a thin filament-like tissue” and the “infertility in rainbow trout” value [1] was “induced infertility”. The “histological examination of gonadal tissue” value ([1]; treatments I, II and III) was “under-developed without advanced gonadal structure or germ cells” and the gonad morphology ([1]; treatments I, II and III (fertilized eggs at water activation; unfertilized eggs in ovarian fluid or fertilization diluent)) was “developed into a thin filament-like tissue”.

In the case of `N#CS.N=C(N)N` [guanidine-thiocyanate], the “uptake of fluorescein-dextran in the eggs (green fluorescence)” value (“uptake of fluorescein-dextran” below) [2] is reported as “enhanced the uptake of fluorescein-dextran”.

With `Cl.N=C(N)N` [guanidine-HCl] the “uptake of fluorescein-dextran” value [2] was “enhanced the uptake of fluorescein-dextran”.

In the case of `N=C(N)NCCC[C@H](N)C(=O)O` [arginine], the “uptake of fluorescein-dextran” value [2] is reported as “enhanced the uptake of fluorescein-dextran”.

“salmonids' dnd-MO: antisense Morpholino oligomer against salmonid dead end, 5′-CTGACTTGAACGCTCCTCCATTATC-3′ (SEQ ID NO. 3) (all phosphorodiamidate morpholino (PMO))” was tested, and the gonad morphology (Atlantic salmon eggs; dnd-MO 20 μM for 48 hours, treatments IV, V (unfertilized eggs in ovarian fluid or immersion medium)) was “developed into a thin filament-like tissue” and the “gonadal development in Atlantic salmon” value (Atlantic salmon eggs; dnd-MO 20 μM for 48 hours, unfertilized eggs) was “blocked gonadal development”.
